{"source": "patent US7442680B2", "about": "“Inotropic and diuretic effects of GLP-1 and GLP-1 agonists” (Amylin Pharmaceuticals, Inc., priority 1998, dated 2008)", "key": {"[1]": {"system": "Harlan Sprague Dawley rats", "experiment": "Diuretic effects of GLP-1 or exendin in anesthetized rats (urine flow, sodium excretion, urinary potassium)", "assay_type": "in vivo, rat", "conditions": "intravenous bolus", "method": "In Vivo Studies in Anesthetized rats: Male, Harlan Sprague Dawley rats were housed at 23±1° C. in a 12:12 hour light:dark cycle (experiments being performed during the light cycle) and were fed and watered ad libitum (Diet LM-485, Teklad, Madison, Wis.). Animals weighing 325-375 gms were fasted for ˜20 hours prior to experimentation.\nSurgical preparation: The preparation used here was as described in Young et al., (Drug Dev Res. 37:231-248, 1996), but modified by the addition of unilateral ureteral cannulation. Anesthesia was induced with 5% halothane, maintained with 2% halothane during surgery and with 0.7 to 1% thereafter. […] Colonic temperature was measured and controlled using a thermistor probe/controller (Model 73A, YSI, Yellow Springs, Ohio) and a heated operating table. Signals for mean arterial pressure were periodically sampled at 1 Hz with 12 bit precision (DataTranslation DT2801A) and recorded (Labtech Notebook).\nObservations are expressed as the percent of baseline, defined as the mean of measurements made in the 30 min prior to starting peptide or vehicle infusion. Data are expressed as mean±SEM. n=5-6.\nMeasurements: Samples of arterial blood (160 μl) were collected periodically and samples of urine were collected every 15 min. […] Unilateral urine flow was measured by weighing the 15-minute output of the cannulated ureter. […]"}, "[2]": {"system": "Harlan Sprague Dawley rats", "experiment": "Arterial blood pressure and dP/dt in conscious rats by telemetry", "assay_type": "in vivo, rat", "conditions": "single intraperitoneal injection", "from_the_text": "Insertion of Transducers: Male, Harlan Sprague Dawley rats were anesthetized with halothane and the abdominal aorta exposed after laparotomy. According to procedures detailed in the “Pressure Telemetry” manual from Data Sciences Inc., pressure transducer/transmitters were secured in place on the abdominal wall with the catheter tip in the abdominal aorta ˜2 mm above bifurcation. Following closure, the animals then recovered to allow at least 7 days of stable recordings. Baseline data were collected during the 7+days after surgery.\nMeasurement of blood pressure and dP/dt: After obtaining a stable baseline, rats received an intraperitoneal (ip) injection of GLP-1, exendin or vehicle alone (NaCl). The transmitted signals were recorded via telemetry and stored on a personal computer. Rate of pressure change, dP/dt, was calculated by software provided by Data Sciences.\nGLP-1: Animals received a single intraperitoneal (ip) injection of saline or GLP-1 (100 μl), n=7-8."}, "[3]": {"conditions": "cited from earlier work"}, "[4]": {"conditions": "administered through the jugular vein; cited from earlier work"}}, "note": "Where two headings read alike, the source gives them in different places. Where no end group is shown, it is not given here.", "data": [{"substance": "His Ala Glu Gly Thr Phe Thr Ser Asp Val Ser Ser Tyr Leu Glu Gly Gln Ala Ala Lys Glu Phe Ile Ala Trp Leu Val Lys Gly Arg-NH2 (HAEGTFTSDVSSYLEGQAAKEFIAWLVKGR-NH2; listed as Homo sapiens) [GLP-1]", "values": [{"measurement": "sodium excretion", "setting": "[1]", "result": "increased"}, {"measurement": "cardiac contractility (dP/dt)", "setting": "[2]", "result": "increase"}, {"measurement": "mean arterial pressure", "setting": "[2]", "result": "increase"}, {"measurement": "diuretic effect", "setting": "[3]; intracerebroventricular administration", "result": "diuretic, antidypsogenic effect"}, {"measurement": "diuretic effect", "setting": "[3]; peripheral, intraperitoneal injection", "result": "did not have this effect"}, {"measurement": "systolic and diastolic blood pressure and heart rate", "setting": "[4]", "result": "increase"}]}]}
